Source: patent US20250011288A1 (BRISTOL-MYERS SQUIBB COMPANY, priority 2021, published 2025)

Molecular target: T1, human RXFP1 (Homo sapiens, UniProt Q9HBX9)
T1 construct: expressed in transfected cells
T1 sequence (Q9HBX9 1-757): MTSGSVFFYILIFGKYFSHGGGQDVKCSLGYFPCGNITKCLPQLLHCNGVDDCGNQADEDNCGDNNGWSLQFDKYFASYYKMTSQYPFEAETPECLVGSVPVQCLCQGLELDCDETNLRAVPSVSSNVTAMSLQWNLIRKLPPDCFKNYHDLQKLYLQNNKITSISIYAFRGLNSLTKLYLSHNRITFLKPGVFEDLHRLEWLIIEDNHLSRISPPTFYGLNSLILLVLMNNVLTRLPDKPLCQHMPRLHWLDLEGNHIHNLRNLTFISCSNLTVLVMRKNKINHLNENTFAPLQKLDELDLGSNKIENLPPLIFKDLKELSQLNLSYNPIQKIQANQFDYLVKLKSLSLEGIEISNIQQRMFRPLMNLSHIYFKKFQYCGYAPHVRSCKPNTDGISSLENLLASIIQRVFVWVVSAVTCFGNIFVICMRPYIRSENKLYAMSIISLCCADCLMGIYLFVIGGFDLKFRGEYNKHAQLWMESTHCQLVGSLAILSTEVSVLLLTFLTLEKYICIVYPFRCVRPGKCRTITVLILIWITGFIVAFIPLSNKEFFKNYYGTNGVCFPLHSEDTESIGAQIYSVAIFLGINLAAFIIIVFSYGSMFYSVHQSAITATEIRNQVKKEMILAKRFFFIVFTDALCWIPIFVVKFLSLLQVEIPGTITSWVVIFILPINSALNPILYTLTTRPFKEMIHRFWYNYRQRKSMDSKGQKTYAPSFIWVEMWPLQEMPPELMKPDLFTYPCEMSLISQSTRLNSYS
Assay: human RXFP1 (hRXFP1) HEK293 cAMP assay (HTRF)
Format: cell-based
Conditions: HEK293 cells stably expressing human RXFP1, 30 min at room temperature
In short: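 Intracellular cAMP was quantified by HTRF after a 30 min room-temperature exposure of hRXFP1-HEK293 cells (1500/well) to compound at 0.010 nM–50 µM final, 2% DMSO. Buffer was HBSS with 20 mM HEPES, 0.05% BSA and 0.5 mM IBMX; values came from a 4-parameter logistic fit.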

| EC50 [nM] | Structure (SMILES) |
| --- | --- |
| 110 | COc1cc2c(cc1C(=O)N[C@H]1[C@@H](C(=O)Nc3ccc(F)c(C(F)(F)F)c3)[C@H]3CC[C@@H]1/C3=C\C1CC1)CN(S(=O)(=O)CC(C)C)CC2 [Example 88, N-((1R,2R,3S,4R,Z)-7-(cyclopropylmethylene)-3-((4-fluoro-3-(trifluoromethyl)phenyl)carbamoyl)bicyclo[2.2.1]heptan-2-yl)-2-(isobutylsulfonyl)-6-methoxy-1,2,3,4-tetrahydroisoquinoline-7-carboxamide] |
| 230 | COc1cc2c(cc1C(=O)N[C@H]1[C@@H](C(=O)Nc3ccc(F)c(C(F)(F)F)c3)[C@H]3CC[C@@H]1/C3=C\C1CC1)CN(S(C)(=O)=O)CC2 [Example 89, N-[(1R,2R,3S,4R)-7-(cyclopropyl-methylidene)-3-{[4-fluoro-3-(trifluoromethyl)phenyl]carbamoyl}bicyclo[2.2.1]heptan-2-yl]-2-methanesulfonyl-6-methoxy-1,2,3,4-tetrahydro-isoquinoline-7-carboxamide] |
| 2400 | COc1cc2c(cc1C(=O)N[C@H]1[C@@H](C(=O)Nc3ccc(F)c(C(F)(F)F)c3)[C@H]3CC[C@@H]1/C3=C\C1CC1)CCN(CCCO)C2 [Example 90, N-((1R,2R,3S,4R,Z)-7-(cyclopropylmethylene)-3-((4-fluoro-3-(trifluoromethyl)phenyl)carbamoyl)bicyclo[2.2.1]heptan-2-yl)-2-(3-hydroxypropyl)-7-methoxy-1,2,3,4-tetrahydroisoquinoline-6-carboxamide] |
| 4700 | COCCN1CCc2cc(C(=O)N[C@@H]3C4CCC(/C4=C/C4CC4)[C@@H]3C(=O)Nc3ccc(F)c(C(F)(F)F)c3)c(OC)cc2C1 (stereo partly drawn) [Example 91] |
| 4800 | COc1cc2c(cc1C(=O)N[C@@H]1C3CCC(/C3=C/C3CC3)[C@@H]1C(=O)Nc1ccc(F)c(C(F)(F)F)c1)CCN(CCS(C)(=O)=O)C2 (stereo partly drawn) [Example 92] |
| 1700 | COc1cc2c(cc1C(=O)N[C@@H]1C3CCC(/C3=C/C3CC3)[C@@H]1C(=O)Nc1ccc(F)c(C(F)(F)F)c1)CCN(S(C)(=O)=O)C2 (stereo partly drawn) [Example 93] |
| 1200 | COc1cc2c(cc1C(=O)N[C@@H]1C3CCC(/C3=C/C3CC3)[C@@H]1C(=O)Nc1ccc(F)c(C(F)(F)F)c1)CN(CCO)CC2 (stereo partly drawn) [Example 94] |
| 1600 | COc1cc2c(cc1C(=O)N[C@@H]1C3CCC(/C3=C/C3CC3)[C@@H]1C(=O)Nc1ccc(F)c(C(F)(F)F)c1)CCN(CC(C)(C)O)C2 (stereo partly drawn) [Example 95] |
| 1.4 | COc1ncc(C2=NOC3CC(CO)CC23)cc1C(=O)N[C@H]1[C@@H](C(=O)Nc2ccc(F)c(C(F)(F)F)c2)[C@H]2CC[C@@H]1/C2=C\c1cscn1 (stereo partly drawn) [Example 96, N-((1R,2R,3S,4R,Z)-3-((4-fluoro-3-(trifluoromethyl)phenyl)carbamoyl)-7-(thiazol-4-ylmethylene)bicyclo[2.2.1]heptan-2-yl)-5-(5-(hydroxymethyl)-3a,5,6,6a-tetrahydro-4H-cyclopenta[d]isoxazol-3-yl)-2-methoxy-nicotinamide] |
| 3.1 | COc1ncc(C2=NOC3CC(CO)CC23)cc1C(=O)N[C@H]1[C@@H](C(=O)Nc2ccc(F)c(C(F)(F)F)c2)[C@H]2CC[C@@H]1/C2=C\c1cscn1 (stereo partly drawn) [Example 97, N-((1R,2R,3S,4R,Z)-3-((4-fluoro-3-(trifluoromethyl)phenyl)carbamoyl)-7-(thiazol-4-ylmethylene)bicyclo [2.2.1]heptan-2-yl)-5-(5-(hydroxymethyl)-3a,5,6,6a-tetrahydro-4H-cyclopenta[d]isoxazol-3-yl)-2-methoxy-nicotinamide] |
| 3.2 | COc1ncc(C2=NOC3CC(CO)CC23)cc1C(=O)N[C@@H]1C2CCC(/C2=C/c2csc(C)n2)[C@@H]1C(=O)N[C@H](C)C1(C)CC1 (stereo partly drawn) [Example 99] |
| 3.4 | COc1ncc(C2=NOC3COCC23)cc1C(=O)N[C@H]1[C@@H](C(=O)N[C@H](C)C2(C)CC2)[C@H]2CC[C@@H]1/C2=C\c1csc(C(F)F)n1 (stereo partly drawn) [Example 100, N-((1R,2R,3S,4R,Z)-7-((2-(difluoromethyl)thiazol-4-yl)methylene)-3-(((R)-1-(1-methylcyclopropyl)ethyl)carbamoyl)bicyclo[2.2.1]heptan-2-yl)-2-methoxy-5-(3a,4,6,6a-tetrahydrofuro[3,4-d]isoxazol-3-yl)nicotinamide] |
| 1.6 | COc1ncc(C2=NOC3CC(CO)CC23)cc1C(=O)N[C@H]1[C@@H](C(=O)Nc2ccc(F)c(C(F)(F)F)c2)[C@H]2CC[C@@H]1/C2=C\C1CCCC1 (stereo partly drawn) [Example 101, N-((1R,2R,3S,4R,Z)-7-(cyclopentyl-methylene)-3-((4-fluoro-3-(trifluoromethyl)phenyl)carbamoyl)bicyclo[2.2.1]heptan-2-yl)-5-(5-(hydroxymethyl)-3a,5,6,6a-tetrahydro-4H-cyclopenta[d]isoxazol-3-yl)-2-methoxynicotinamide] |
| 2.5 | COc1ncc(-c2cnc3n2CC(O)CC3)cc1C(=O)N[C@H]1[C@@H](C(=O)Nc2ccc(F)c(C(F)(F)F)c2)[C@H]2CC[C@@H]1/C2=C\C1CC1 (stereo partly drawn) [Example 102, N-((1R,2R,3S,4R,Z)-7-(cyclopropyl-methylene)-3-((4-fluoro-3-(trifluoromethyl)phenyl)carbamoyl)bicyclo[2.2.1]heptan-2-yl)-5-(6-hydroxy-5,6,7,8-tetrahydroimidazo [1,2-a]pyridin-3-yl)-2-methoxynicotinamide] |
| 3.4 | COc1ncc(-c2cnc3n2CC(O)CC3)cc1C(=O)N[C@H]1[C@@H](C(=O)Nc2ccc(F)c(C(F)(F)F)c2)[C@H]2CC[C@@H]1/C2=C\C1CC1 (stereo partly drawn) [Example 103, N-((1R,2R,3S,4R,Z)-7-(cyclopropyl-methylene)-3-((4-fluoro-3-(trifluoromethyl)phenyl)carbamoyl)bicyclo[2.2.1]heptan-2-yl)-5-(6-hydroxy-5,6,7,8-tetrahydroimidazo [1,2-a]pyridin-3-yl)-2-methoxynicotinamide] |
| 4 | COc1ncc(-c2cnc3n2CC(O)CC3)cc1C(=O)N[C@H]1[C@@H](C(=O)Nc2ccc(F)c(C(F)(F)F)c2)[C@H]2CC[C@@H]1/C2=C\C1CC1 (stereo partly drawn) [Example 104, N-((1R,2R,3S,4R,Z)-7-(cyclopropyl-methylene)-3-((4-fluoro-3-(trifluoromethyl)phenyl)carbamoyl)bicyclo[2.2.1]heptan-2-yl)-5-(6-hydroxy-5,6,7,8-tetrahydroimidazo[1,2-a]pyridin-3-yl)-2-methoxynicotinamide] |
| 1.2 | COc1ncc(C2=NOC3CC(CO)CC23)cc1C(=O)N[C@H]1[C@@H](C(=O)N[C@H](C)C2(C)CC2)[C@H]2CC[C@@H]1/C2=C\C1CC1 (stereo partly drawn) [Example 105, N-((1R,2R,3S,4R,Z)-7-(cyclopropyl-methylene)-3-(((R)-1-(1-methylcyclopropyl)ethyl)carbamoyl)bicyclo[2.2.1]heptan-2-yl)-5-(5-(hydroxymethyl)-3a,5,6,6a-tetrahydro-4H-cyclopenta[d]isoxazol-3-yl)-2-methoxynicotinamide] |
| 1.8 | COc1ncc(C2=NO[C@@H]3C[C@H](CO)CN23)cc1C(=O)N[C@@H]1C2CCC(/C2=C/C2CC2)[C@@H]1C(=O)N[C@H](C)C1(C)CC1 (stereo partly drawn) [Example 106, N-((1R,2R,3S,4R,Z)-7-(cyclopropyl-methylene)-3-(((R)-1-(1-methylcyclopropyl)ethyl)carbamoyl)bicyclo[2.2.1]heptan-2-yl)-5-((6S,7aR)-6-(hydroxymethyl)-5,6,7,7a-tetrahydropyrrolo [1,2-d][1,2,4]oxadiazo 1-3-yl)-2-methoxynicotinamide] |
